Reference: patent publication US9155752B2, “Liver function-improving agent” (UENO FINE CHEMICALS INDUSTRY, LTD., priority 2012, dated 2015)
Entries after “also recorded” stand apart in the source; their conditions may differ.

Assays:
NASH mice = assay: F4/80 immunostaining of liver, inflammation area % (Test Example 3); format: in vivo; details: for Inflammation area %, Significant difference: Bonferroni, 5% level, tendency at 10% level; for Inflammation area % (F4/80 immunostaining), mean ± standard deviation: 8 weeks of age
Source text: A solid diet CE-2 (lipid 4.6% by weight, manufactured by CLEA Japan, Inc.) was used as a normal diet. A solid diet, High Fat Diet 32 (lipid 32.0% by weight, sucrose 6.75% by weight, manufactured by CLEA Japan, Inc.), was used as a sucrose-containing high fat diet. As a maltitol-containing high-fat diet, a special diet (lipid 32.0% by weight, maltitol 6.08% by weight; manufactured by CLEA Japan, Inc.) obtained by replacing the total amount (6.75% by weight) of sucrose in a solid diet, High Fat Diet 32, with powdered maltitol (Whole Crystalline Maltitol Ueno 60M (purity of maltitol: 90%), manufactured by Ueno Fine Chemicals Industry Ltd.) was used. Sodium hypochlorite (PURELOX-S, manufactured by OYALOX Co., Ltd.) was added to pure water prepared by Elix-UV pure water producing apparatus, to a final concentration of 0.00009%, so that pure water for use in the test was obtained. An aqueous maltitol solution was prepared by dissolving powdered maltitol (Whole Crystalline Maltitol Ueno 60M (purity of maltitol: 90%), manufactured by Ueno Fine Chemicals Industry Ltd.) in pure water to a concentration of 1.8% (weight/volume). The purity of maltitol in the aqueous maltitol solution was 1.62%. Twenty-one female SPF mice (C57BL/6J, produced by CLEA Japan, Inc.) on day 14 of pregnancy were purchased and acclimation was performed. All animals were allowed to make a natural birth and a born male was used to produce a model. In addition, the weaning was at 4 weeks after birth. Streptozotocin (Sigma-Aldrich Japan K.K.) was adjusted to a concentration of 10 mg/mL with a physiological saline solution (manufactured by Otsuka Pharmaceutical Factory, Inc.) and the solution was subcutaneously administered once to the back of 2-day-old male mice at a dose of 20 μL/mouse (200 μg/mouse). Afterwards, the mother animal took care of the baby until weaning. The weaning was on day 28±2 after birth. After the weaning, a normal diet was supplied ad libitum to animals receiving no streptozotocin (normal mice (group S1 and group 1)), and a sucrose-containing high fat diet was supplied ad libitum to animals receiving streptozotocin (NASH mice (group S2, group 2, group 3, and group 4). A normal diet was supplied ad libitum to normal mice (group 1). With respect to NASH mice, a sucrose-containing high fat diet was supplied ad libitum to the sucrose group (group 2), and a maltitol-containing high fat diet was supplied ad libitum to the maltitol-low dose group (group 3) and the maltitol-high dose group (group 4). An aqueous maltitol solution was supplied ad libitum only to the maltitol-high dose group (group 4) of 5 to 8 weeks of age, and pure water was supplied ad libitum to the groups other than group 4 of 5 to 8 weeks of age. Six male animals per group were assigned to groups S1 and S2, reared up to 5 weeks of age, and then necropsied. Eight male animals per group were assigned to groups 1, 2, 3 and 4, reared up to 8 weeks of age, and then necropsied. At scheduled necropsy of the animals of 5 or 8 weeks of age, all individuals were anesthetized with diethyl ether (manufactured by Sigma-Aldrich Japan K.K.) and a needle through which heparin sodium (Novo Heparin Injection 1000, manufactured by Mochida Pharmaceutical Co., Ltd.) had been passed was punctured to the heart to aspirate the whole blood, leading to euthanasia, followed by harvest of the organ. […]

[1] = tested on: C57BL/6 male mice fed high fat diet; assay: Blood AST value and blood ALT value after 8-week feeding (Test Example 1); format: in vivo; design: key to Blood ALT value, Significant difference: *: a significant difference was observed at 1% level of significance relative to group 3
Source text: Eight-week-old C57BL/6 male mice (CLEA Japan, Inc.) were divided at random into groups (each group: four animals) and then used. As a normal diet, solid diet MF (lipid component 5.3%, manufactured by Oriental Yeast Co., Ltd.) was used. As a high-fat diet, solid diet High Fat Diet 32 (lipid component 32.0%, manufactured by CLEA Japan, Inc.) was used. As a sample water, 2.5% by weight of aqueous sucrose solution, 2.25% by weight of aqueous maltitol solution, and 4.5% by weight of aqueous maltitol solution obtained by respectively dissolving, as a test substance, sucrose (manufactured by Wako Pure Chemical Industries, Ltd.) and maltitol (Whole Crystalline Maltitol Ueno 60M, having maltitol purity of 90%, manufactured by Ueno Fine Chemicals Industry, Ltd.) in distilled water were used. Distilled water was used as a negative sample. The sample water was administered by making it available ad libitum and the amount of sample water intake was recorded. The dose of sucrose per day calculated from the concentration of the sample water and the water intake was 3 g per 1 kg of body weight. The dose of maltitol per day calculated in the same manner as above was 2.7 g per 1 kg of body weight in mice receiving 2.25% aqueous maltitol solution, and 4.5 g per 1 kg of body weight in mice receiving 4.5% aqueous maltitol solution. The diet and the sample water (test substance aqueous solution or distilled water) listed in Table 1 were administered to mice in each group, and the animals were fed for 8 weeks. After 8-week test feeding, pentobarbital of 0.5 mg/10 g of body weight was intraperitoneally administered to mice, and blood was collected from the tail vein under deep anesthesia. With respect to the serum from the collected blood sample of mice, blood AST value and blood ALT value which are each an indicator of liver function were measured using a Transaminase C-II Test Wako Kit (Wako Pure Chemical Industries, Ltd.). A significant difference test by the t-test method was performed on blood AST values, blood ALT values, and blood ketone bodies values were evaluated by performing significant difference tests on these values via t-test.

[2] = Group 4: high fat diet + 2.25% aqueous maltitol solution ad libitum, 8 weeks (2.7 g/kg/day)
[3] = Group 5: high fat diet + 4.5% aqueous maltitol solution ad libitum, 8 weeks (4.5 g/kg/day)
[4] = Group 3: high fat diet + 2.5% aqueous sucrose solution ad libitum, 8 weeks (3 g/kg/day)

## OC[C@@H](O)[C@@H](O[C@H]1O[C@H](CO)[C@@H](O)[C@H](O)[C@H]1O)[C@H](O)[C@@H](O)CO [maltitol]
NASH mice; Group 3 (low-dose maltitol) vs sucrose group (group 2)
  Inflammation area %, Significant difference: No significant difference and No
NASH mice; Group 3, low-dose maltitol: HFD32-M (maltitol 6.08%) + pure water
  Inflammation area % (F4/80 immunostaining), mean ± standard deviation: 3.04 ± 1.55%
NASH mice; Group 4 (high-dose maltitol) vs sucrose group (group 2)
  Inflammation area %, Significant difference: tendency to be low; also recorded: Tendency to be different
NASH mice; Group 4, high-dose maltitol: HFD32-M (maltitol 6.08%) + aqueous maltitol solution 1.62%
  Inflammation area % (F4/80 immunostaining), mean ± standard deviation: 2.46 ± 0.44%
[1]; Group 4 (2.25% aqueous maltitol solution) relative to group 3 (sucrose)
  Blood AST value, change in words: tendency to be decreased
[1]; [2]
  Blood ALT value (Mean ± Standard error): 41 ± 14 IU/L
  Blood AST value (Mean ± Standard error): 205 ± 77 IU/L
[1]; Group 5 (4.5% aqueous maltitol solution) compared to group 3 (sucrose)
  Blood ALT value, change in words: significantly decreasing the blood ALT value
[1]; Group 5 (4.5% aqueous maltitol solution) compared with group 1 (normal diet + distilled water)
  Blood AST value, change in words: decreased to a level equivalent to that in group 1
[1]; Group 5 (4.5% aqueous maltitol solution) relative to group 3 (sucrose), t-test
  Blood ALT value, Significant difference: *
[1]; [3]
  Blood ALT value (Mean ± Standard error): 11 ± 1 IU/L
  Blood AST value (Mean ± Standard error): 54 ± 3 IU/L

## OC[C@H]1O[C@@](CO)(O[C@H]2O[C@H](CO)[C@@H](O)[C@H](O)[C@H]2O)[C@@H](O)[C@@H]1O [sucrose, reference compound]
NASH mice; Group 2, sucrose group: HFD32 (sucrose 6.75%) + pure water
  Inflammation area % (F4/80 immunostaining), mean ± standard deviation: 3.28 ± 0.95%
[1]; [4]
  Blood ALT value (Mean ± Standard error): 50 ± 12 IU/L
  Blood AST value (Mean ± Standard error): 244 ± 107 IU/L
